In patent US20110224297A1, “Methods of administering prostratin and structural analogs thereof” (priority 2008, published 2011):

How the values were obtained:
[1] = In vitro metabolism in rat primary hepatocytes; type: in vitro ADME
Experimental: (§1) ^3H-Prostratin was incubated in hepatocyte preparations with 0.75×10^6 hepatocytes/ml for 0, 30, 60, and 120 minutes. Hepatocytes were suspended in William's E medium and incubated with 1 μM or 4 μM ^3H-Prostratin at 37° C. in an atmosphere of 4.7-4.8% CO2. Hepatocyte incubations were terminated by addition of acetonitrile. Incubations were profiled for ^3H-Prostratin and metabolites by high performance liquid chromatography using a radioactivity detector.
(§2) Metabolites were subsequently analyzed by liquid chromatography/tandem mass spectrometry (LC/MS/MS) for putative identification. Seven predominant metabolites, identified as M1 through M6 according to their chromatographic order of elution, were detected among both genders of the three species, including two co-eluting metabolites labeled as M3A or M3B. Among the seven metabolites, five were putatively identified by LC/MS/MS, while structures could not be proposed for M2 and M3B.

[2] = In vitro metabolism in monkey primary hepatocytes; type: in vitro ADME; settings: monkey hepatocytes of both genders
Experimental: as §1, §2

[3] = Extent of metabolism by hepatocytes, rank order across species and genders; type: in vitro ADME, rat, monkey, human; settings: 1 μM and 4 μM; up to 120 minutes
Experimental: as §1, §2

[4] = Quantitative whole body autoradiography of rats following oral administration; type: in vivo, Long Evans rats
Experimental: The absorption and distribution of ^3H-Prostratin were studied in male and female rats following a single oral administration at 0.2 mg/kg. Four Long Evans male and four Long Evans female rats, after an overnight fast, each received a single oral administration of ^3H-Prostratin as a solution in saline containing <1% of ethanol at a target dose of 0.2 mg/kg. For both males and females, one animal per time point per sex was sacrificed at 1, 4, 8, and 24 hours postdose and carcasses were prepared for whole-body autoradiography (WBA). Blood, plasma, and cellular fraction were analyzed by using liquid scintillation counting (LSC).

[5] = In vitro metabolism in human primary hepatocytes; type: in vitro ADME
Experimental: as §1, §2

[6] = test system: resting CD4+ T cells derived from HIV positive patients; test: Induction of HIV-1 expression in resting CD4+ T cells from HIV positive patients on HAART (p24, co-culture); type: cell-based, human; settings: VPA at 1 mM added to cultures treated with prostratin
Experimental: The ability of prostratin to induce HIV-1 expression in cultures of highly purified resting CD4+ T cells derived from six HIV positive patients on HAART therapy with undetectable plasma viral load (<50 copies/ml) and CD4 cell counts above 350 cells/mm^3 was evaluated. PBMCs were separated using Ficol Hypaque gradient and resting CD4+ T cells were purified using commercially available CD4+ T cell isolation kit (Miltenyi Biotec) Immediately after purification, resting CD4+ T cells were treated for 3 days with two antiretrovirals to which the patient had not previously been exposed. Antiretrovirals were used at concentrations 10 times the 50% inhibitory concentration for wild-type HIV-1 to ensure elimination of any actively replicating virus. Three days after in vitro incubation with antiretrovirals, cells were washed and incubated for 5 h, 24 h, or 48 h with prostratin (50-500 ng/ml), in the absence or presence of 1 mM valproic acid (sodium salt, SIGMA), 10 μg/ml PHA (SIGMA), 50 U IL-2/ml (AIDS depository of reagents, NIH), or in the absence of drugs. At the end of each incubation period, cells were co-cultured with CD8-depleted PBMCs from healthy donors. P24 was measured at days 0, 4, 7, 14, 21, 28, 35 and 42 days.

[7] = female rats, single oral 0.2 mg/kg
[8] = male rats, single oral 0.2 mg/kg

| SMILES | number of metabolites detected ([1]; female rat hepatocytes) | number of metabolites detected ([1]; male rat hepatocytes) | gender difference in metabolism ([1]; male rat versus female rat hepatocytes) | number of metabolites produced [2] | extent of metabolism by hepatocytes, rank order [3] | maximum blood concentration of radioactivity [4, 7] | maximum plasma concentration of radioactivity [4, 7] | time of maximum blood and plasma concentrations of radioactivity [4, 7] | gender-related difference in tissue distribution of radioactivity ([4]; female versus male rats) | tissue distribution of radioactivity ([4]; male and female rats, single oral 0.2 mg/kg) | maximum blood concentration of radioactivity [4, 8] | maximum plasma concentration of radioactivity [4, 8] | time of maximum blood concentration of radioactivity [4, 8] | time of maximum plasma concentration of radioactivity [4, 8] | number of metabolites produced ([5]; both genders of human hepatocytes) | extent of metabolism in human compared with male monkeys ([5]; human hepatocytes) | unique human metabolites ([5]; human hepatocytes) | enhancement of HIV-1 replication beyond the prostratin effect [6] |
| --- | --- | --- | --- | --- | --- | --- | --- | --- | --- | --- | --- | --- | --- | --- | --- | --- | --- | --- |
| CC(=O)O[C@@]12C[C@@H](C)[C@@]3(O)[C@@H](C=C(CO)C[C@]4(O)C(=O)C(C)=C[C@@H]34)[C@@H]1C2(C)C [^3H-Prostratin] | two | Six | more rapid metabolism | five | male monkey>male rat>>female monkey≈male human≈female human>female rat | 59.7 ng equivalents ^3H-Prostratin/g | 63.7 ng equivalents ^3H-Prostratin/g | 1 hour postdose | distributed more widely in female tissues than male tissues | Most of the radioactivity was found in the gastrointestinal (GI) tract | 30.5 ng equivalents ^3H-Prostratin/g | 53.5 ng equivalents ^3H-Prostratin/g | 1 hours postdose | 4 hours postdose | Five | considerably lower | no unique human metabolites | – |
| CCCC(CCC)C(=O)O [VPA, valproic acid, reference compound] | – | – | – | – | – | – | – | – | – | – | – | – | – | – | – | – | – | did not significantly enhance |
